According to patent publication US20250304717A1, “CAMPTOTHECIN DERIVATIVE AND LIGAND-DRUG CONJUGATE” (HAINAN SIMCERE ZAIMING PHARMACEUTICAL CO., LTD., priority 2022, published 2025):
Where two headings read alike, the source gives them in different places.

Assays:
[1] = tested on: OVCAR3 cells; experiment: Anti-tumor cell proliferation activity of compound of formula (D-H), Cell-Titer Glo, OVCAR3; type: cell-based; details: Homo sapiens, OVCAR-3, 120 h
Protocol: (§1) Cell culture: HCT116 cells and SKBR3 cells were cultured with a McCoy's 5a medium containing 10% fetal bovine serum+1% penicillin-streptomycin at 37° C. with 5% CO2, and OVCAR3 cells were cultured with a 1640 medium containing 20% fetal bovine serum+2 μg/mL bovine insulin+1% penicillin-streptomycin at 37° C. with 5% CO2. Cells at logarithmic growth phase were available for the experiment.
(§2) Cell proliferation activity test: The Cell-Titer Glo reagent was used to test the compound for inhibitory activity on proliferation of the three cell strains HCT116, SKBR3, and OVCAR3. HCT116 cells (1500 per well), SKBR3 cells (3000 per well), and OVCAR3 cells (5000 per well) were seeded on 96-well plates and incubated at 37° C. with 5% CO2 for 24 h. After a solution of the compound to be detected was added (the compound was dissolved in DMSO so that the compound concentration was 1 mM, then the compound was diluted to […] in DMSO at 9 concentrations in a 3-fold dilution, and 10 μL of the prepared compound solution was transferred to the 96-well plate so that the final concentration was 0-300 nM), the mixture was incubated at 37° C. with 5% CO2. HCT116 cells were cultured for 3 days, and SKBR3 cells and OVCAR3 cells were cultured for 5 days. The Cell-Titer Glo reagent was added and the cell activity was measured.
(§3) A negative control group and a positive control group were respectively used as Bottom and Top. The negative control group was not added with cells, only added with the culture medium in the same volume, and other operations were consistent with those of the experimental group. The positive control group was not added with the test drug, and other operations were consistent with those of the experimental group.
(§4) Data analysis: % Inhibition was calculated, and compound IC50 was fitted.
(§5) % Inhibition=1-100%×(Signal−Bottom)/(Top−Bottom).
(§6) Signal referred to the signal value of the experimental group, Bottom referred to the average signal value of the negative control group, and Top referred to the average signal value of the positive control group.

[2] = tested on: SKBR3 cells; experiment: Anti-tumor cell proliferation activity of compound of formula (D-H), Cell-Titer Glo, SKBR3; type: cell-based, human
Protocol: as §1, §2, §3, §4, §5, §6

[3] = tested on: HCT116 cells; experiment: Anti-tumor cell proliferation activity of compound of formula (D-H), Cell-Titer Glo, HCT116; type: cell-based; details: Homo sapiens, HCT-116, 72 h
Protocol: as §1, §2, §3, §4, §5, §6

[4] = molecular target: human ROR1 on stably transfected cell strain MCF7-hROR1 clone 2G2 (human, UniProt Q01973 30-406); experiment: flow cytometry (FACS) on MCF7-hROR1 clone 2G2 cells, 5-fold dilutions from 100 nM, Alexa Fluor 647 anti-human IgG secondary antibody, four-parameter fit
Protocol: Stably transfected cell strain MCF7-hROR1 clone 2G2 constructed in the steps described above was expanded to a logarithmic growth phase in a T-75 cell culture flask, and the medium supernatant was discarded after centrifugation. The cell pellet was washed twice with PBS. […] After the mixture was washed twice with PBS, a secondary antibody was added: Alexa Fluor® 647 AffiniPure Goat Anti-Human IgG (H+L) (purchased from Jackson Immuno, Cat. No: 109-605-088), and the mixture was incubated at 4° C. for 1 h. After the mixture was washed twice with PBS, the cells were resuspended, and detected and analyzed by FACS (FACS Canto™, purchased from BD Biosciences). Data were analyzed by four-parameter curve fitting using Graphpad Prism software to give EC₅₀ values.

[5] = read-out: OVCAR3 Antiproliferative activity IC50 (nM)
[6] = Homo sapiens, SK-BR-3, 120 h, read-out: SKBR3 Antiproliferative activity IC50 (nM), SKBR3 cells, 5 days
[7] = read-out: HCT116 Antiproliferative activity IC50 (nM), HCT116 cells, 3 days

In the case of CC[C@@]1(O)C(=O)OCc2c1cc1n(c2=O)Cc2c-1nc1cc(Cl)c(C)cc1c2CNC(=O)CO [Compound 6, (S)-N-((8-chloro-4-ethyl-4-hydroxy-9-methyl-3,14-dioxo-3,4,12,14-tetrahydro-1H-pyrano[3′,4′:6,7]indolizino[1,2-b]quinolin-11-yl)methyl)-2-hydroxyacetamide], the IC50 [1, 5] is reported as 2.1 nM and the IC50 [2, 6] is reported as 4.8 nM.

Work on CC[C@@]1(O)C(=O)OCc2c1cc1n(c2=O)Cc2c-1nc1cc3c(cc1c2CNC(=O)C(O)C1CC1)OCO3 (stereo partly drawn) [Compound 14, 2-cyclopropyl-N—(((S)-7-ethyl-7-hydroxy-8,11-dioxo-7,8,11,13-tetrahydro-10H-[1,3]dioxolo[4,5-g]pyrano[3′,4′:6,7]indolizino[1,2-b]quinolin-14-yl)methyl)-2-hydroxyacetamide] yielded an IC50 [1, 5] of 0.9 nM, an IC50 [3, 7] of under 10 nM and an IC50 [2, 6] of 2.2 nM.

CC[C@@]1(O)C(=O)OCc2c1cc1n(c2=O)Cc2c-1nc1cc3c(cc1c2CNC(=O)[C@@H](O)C1CC1)OCO3 [Compound 14-P1, (S)-2-cyclopropyl-N—(((S)-7-ethyl-7-hydroxy-8,11-dioxo-7,8,11,13-tetrahydro-10H-[1,3]dioxolo[4,5-g]pyrano[3′,4′:6,7]indolizino[1,2-b]quinolin-14-yl)methyl)-2-hydroxyacetamide] was tested, and the IC50 [1, 5] was 0.6 nM, the IC50 [3, 7] was under 10 nM and the IC50 ([2]; Homo sapiens, SK-BR-3, 120 h, SKBR3 cells, 5 days, read-out: SKBR3 Antiproliferative activity IC50) was 2.1 nM.

CC[C@@]1(O)C(=O)OCc2c1cc1n(c2=O)Cc2c-1nc1cc3c(cc1c2CNC(=O)C(O)C1CC1)OCO3 (stereo partly drawn) [Compound 14-P2, 2-cyclopropyl-N—(((S)-7-ethyl-7-hydroxy-8,11-dioxo-7,8,11,13-tetrahydro-10H-[1,3]dioxolo[4,5-g]pyrano[3′,4′:6,7]indolizino[1,2-b]quinolin-14-yl)methyl)-2-hydroxyacetamide] was tested, and the IC50 ([1]; OVCAR3 cells, 5 days, read-out: OVCAR3 Antiproliferative activity IC50) was 1 nM, the IC50 ([3]; HCT116 cells, 3 days, read-out: HCT116 Antiproliferative activity IC50) was 10 to 100 nM and the IC50 ([2]; read-out: SKBR3 Antiproliferative activity IC50, SKBR3 cells, 5 days) was 3.5 nM.

CC[C@@]1(O)C(=O)OCc2c1cc1n(c2=O)Cc2c-1nc1cc(F)c(Cl)c(F)c1c2CNC(=O)CO [Compound 21, (S)-N-((9-chloro-4-ethyl-8,10-difluoro-4-hydroxy-3,14-dioxo-3,4,12,14-tetrahydro-1H-pyrano[3′,4′:6,7]indolizino[1,2-b]quinolin-11-yl)methyl)-2-hydroxyacetamide] was tested, and the IC50 [1, 5] was 1.7 nM, the IC50 [3, 7] was under 10 nM and the IC50 [2, 6] was 4 nM.

With CC[C@@]1(O)C(=O)OCc2c1cc1n(c2=O)Cc2c-1nc1cc(F)c(Cl)c(F)c1c2CNC(=O)C(C)(C)O [Compound 22, (S)-N-((9-chloro-4-ethyl-8,10-difluoro-4-hydroxy-3,14-dioxo-3,4,12,14-tetrahydro-1H-pyrano[3′,4′:6,7]indolizino[1,2-b]quinolin-11-yl)methyl)-2-hydroxy-2-methylpropanamide] the IC50 [1, 5] was 1.4 nM, the IC50 [3, 7] was under 10 nM and the IC50 [2, 6] was 3.5 nM.

CC[C@@]1(O)C(=O)OCc2c1cc1n(c2=O)Cc2c-1nc1cc(F)c(Cl)c(F)c1c2CNC(=O)C(O)C1CC1 (stereo partly drawn) [Compound 23, N—(((S)-9-chloro-4-ethyl-8,10-difluoro-4-hydroxy-3,14-dioxo-3,4,12,14-tetrahydro-1H-pyrano[3′,4′:6,7]indolizino[1,2-b]quinolin-11-yl)methyl)-2-cyclopropyl-2-hydroxyacetamide] was tested, and the IC50 [1, 5] was 3.9 nM, the IC50 [3, 7] was under 10 nM and the IC50 [2, 6] was 5.3 nM.

CC[C@@]1(O)C(=O)OCc2c1cc1n(c2=O)Cc2c-1nc1cc(F)c(Cl)c(F)c1c2CNC(=O)[C@@H](C)O [Compound 25, (R)—N—(((S)-9-chloro-4-ethyl-8,10-difluoro-4-hydroxy-3,14-dioxo-3,4,12,14-tetrahydro-1H-pyrano[3′,4′:6,7]indolizino[1,2-b]quinolin-11-yl)methyl)-2-hydroxypropanamide] was tested, and the IC50 [1, 5] was 2 nM, the IC50 [3, 7] was under 10 nM and the IC50 [2, 6] was 3.7 nM.

Molecule CC[C@@]1(O)C(=O)OCc2c1cc1n(c2=O)Cc2c-1nc1cc(F)c(Cl)c(F)c1c2CNC(=O)[C@H](C)O [Compound 26, (S)-N-(((S)-9-chloro-4-ethyl-8,10-difluoro-4-hydroxy-3,14-dioxo-3,4,12,14-tetrahydro-1H-pyrano[3′,4′:6,7]indolizino[1,2-b]quinolin-11-yl)methyl)-2-hydroxypropanamide] has an IC50 [1, 5] of 1.6 nM, an IC50 [3, 7] of under 10 nM and an IC50 [2, 6] of 4.2 nM.

Molecule CC[C@@]1(O)C(=O)OCc2c1cc1n(c2=O)Cc2c-1nc1cc3c(c(Cl)c1c2CNC(=O)C(O)C1CC1)OCO3 (stereo partly drawn) [Compound 30, N—(((S)-15-chloro-7-ethyl-7-hydroxy-8,11-dioxo-7,8,11,13-tetrahydro-10H-[1,3]dioxolo[4,5-g]pyrano[3′,4′:6,7]indolizino[1,2-b]quinolin-14-yl)methyl)-2-cyclopropyl-2-hydroxyacetamide] has an IC50 [1, 5] of 0.4 nM and an IC50 [3, 7] of under 10 nM.

In the case of CC[C@@]1(O)C(=O)OCc2c1cc1n(c2=O)Cc2c-1nc1cc3c(c(Cl)c1c2CNC(=O)CO)OCO3 [Compound 31, (S)-N-((15-chloro-7-ethyl-7-hydroxy-8,11-dioxo-7,8,11,13-tetrahydro-10H-[1,3]dioxolo[4,5-g]pyrano[3′,4′:6,7]indolizino[1,2-b]quinolin-14-yl)methyl)-2-hydroxyacetamide], the IC50 [1, 5] is reported as 0.2 nM and the IC50 [3, 7] is reported as under 10 nM.

For CC[C@@]1(O)C(=O)OCc2c1cc1n(c2=O)Cc2c-1nc1cc(Cl)c3c(c1c2CNC(=O)CO)CCC3 [Compound 33, (S)-N-((4-chloro-8-ethyl-8-hydroxy-9,12-dioxo-2,3,8,9,12,14-hexahydro-1H,11H-cyclopenta[f]pyrano[3′,4′:6,7]indolizino[1,2-b]quinolin-15-yl)methyl)-2-hydroxyacetamide], the IC50 [1, 5] was 0.8 nM and the IC50 [3, 7] was under 10 nM.

Molecule CC[C@@]1(O)C(=O)OCc2c1cc1n(c2=O)Cc2c-1nc1cc(Cl)c3c(c1c2CNC(=O)C(O)C1CC1)CCC3 (stereo partly drawn) [Compound 34, N—(((S)-4-chloro-8-ethyl-8-hydroxy-9,12-dioxo-2,3,8,9,12,14-hexahydro-1H,11H-cyclopenta[f]pyrano[3′,4′:6,7]indolizino[1,2-b]quinolin-15-yl)methyl)-2-cyclopropyl-2-hydroxyacetamide] has an IC50 [1, 5] of 0.6 nM and an IC50 [3, 7] of under 10 nM.

In the case of CC[C@@]1(O)C(=O)OCc2c1cc1n(c2=O)Cc2c-1nc1cc3c(c(F)c1c2CNC(=O)C(O)C1CC1)OCO3 (stereo partly drawn) [Compound 35, 2-cyclopropyl-N-(((S)-7-ethyl-15-fluoro-7-hydroxy-8,11-dioxo-7,8,11,13-tetrahydro-10H-[1,3]dioxolo[4,5-g]pyrano[3′,4′:6,7]indolizino[1,2-b]quinolin-14-yl)methyl)-2-hydroxyacetamide], the IC50 [1, 5] is reported as 1.2 nM, the IC50 [3, 7] is reported as under 10 nM and the IC50 [2, 6] is reported as 3.5 nM.

B1: ADC-L1-19-8 (antibody, human IgG1, kappa, V domains shown)
VH: QVQLQESGPGLVKPSQTLSLTCTVSGYAFTAYNIHWVRQAPGQGLEWMGSFDPYDGGSSYNQKFKDRLTISKDTSKNQVVLTMTNMDPVDTATYYCARGWYYFDYWGHGTLVTVSS
VL: DIVMTQTPLSLPVTPGEPASISCRASKSISKYLAWYQQKPGQAPRLLIYSGSTLQSGIPPRFSGSGYGTDFTLTINNIESEDAAYYFCQQHDESPYTFGEGTKVEIKR
modifications: drug-linker L1-19 on cysteine thiols after TCEP reduction; positions not given; DAR 7.1 for the whole conjugate
notes: Antibody-drug conjugate
Work on B1 yielded an EC50 [4] of 0.68 nM.

B2: ADC-L1-19-P1-8 (antibody, human IgG1, kappa, V domains shown)
VH: QVQLQESGPGLVKPSQTLSLTCTVSGYAFTAYNIHWVRQAPGQGLEWMGSFDPYDGGSSYNQKFKDRLTISKDTSKNQVVLTMTNMDPVDTATYYCARGWYYFDYWGHGTLVTVSS
VL: DIVMTQTPLSLPVTPGEPASISCRASKSISKYLAWYQQKPGQAPRLLIYSGSTLQSGIPPRFSGSGYGTDFTLTINNIESEDAAYYFCQQHDESPYTFGEGTKVEIKR
modifications: drug-linker L1-19-P1 on cysteine thiols after TCEP reduction; positions not given; DAR 7.7 for the whole conjugate
notes: Antibody-drug conjugate
B2 showed an EC50 [4] of 0.34 nM.
